Assay results: PubChem BioAssay AID330 (DTP/NCI, 2004)
Where “and” joins values, the source holds several entries; their conditions need not be identical. Identical values can stand only once. Inconclusive results and toxic doses are left out. How the source made its calls: active means survival T/C of 150% or more; inactive means T/C below 125% in these data.

System: P388 leukemia ip, CD2F1 mice, survival T/C
Test: NCI In Vivo Anticancer Drug Screen. Data for tumor model P388 Leukemia (intraperitoneal) in CD2F1 (CDF1) mice
Conditions: endpoint: median survival time, higher = longer survival
Description: The antitumor activity of compounds was measured in mice bearing transplantable tumors. Survival or tumor size were measured and the results are expressed as the measurement made in the treated group (T) divided by the measurement made in the vehicle treated control group (C). The tumor model used in this assay is P388 Leukemia (intraperitoneal) in CD2F1 (CDF1) mice

[1] = dose: 2.5 mg/kg/injection, schedule: Q01DX005 (ip), vehicle: Klucel (hydroxypropylcellulose) (HPC)
[2] = dose: 5.0 mg/kg/injection, schedule: Q01DX005 (ip), vehicle: Klucel (hydroxypropylcellulose) (HPC)
[3] = dose: 60.0 mg/kg/injection, schedule: Q01DX005 (ip), vehicle: saline with Tween-80
[4] = dose: 120.0 mg/kg/injection, schedule: Q01DX005 (ip), vehicle: saline with Tween-80
[5] = dose: 240.0 mg/kg/injection, schedule: Q01DX005 (ip), vehicle: saline with Tween-80
[6] = dose: 50.0 mg/kg/injection, schedule: Q01DX005 (ip), vehicle: saline with Tween-80
[7] = dose: 100.0 mg/kg/injection, schedule: Q01DX005 (ip), vehicle: saline with Tween-80
[8] = dose: 200.0 mg/kg/injection, schedule: Q01DX005 (ip), vehicle: saline with Tween-80
[9] = dose: 100.0 mg/kg/injection, schedule: Q01DX009 (ip), vehicle: Klucel (hydroxypropylcellulose) (HPC)
[10] = dose: 200.0 mg/kg/injection, schedule: Q01DX009 (ip), vehicle: Klucel (hydroxypropylcellulose) (HPC)

Measured: T/C

C[CH2][Sn][CH2]C.O=C(CC(=O)c1ccccc1)c1ccccc1.O=C(CC(=O)c1ccccc1)c1ccccc1
inactive: dose: 12.5 mg/kg/injection, schedule: Q01DX001 (ip), vehicle: Klucel (hydroxypropylcellulose) (HPC) 115 % of control | dose: 25.0 mg/kg/injection, schedule: Q01DX001 (ip), vehicle: Klucel (hydroxypropylcellulose) (HPC) 111 % of control | dose: 50.0 mg/kg/injection, schedule: Q01DX001 (ip), vehicle: Klucel (hydroxypropylcellulose) (HPC) 115 % of control | dose: 100.0 mg/kg/injection, schedule: Q01DX001 (ip), vehicle: Klucel (hydroxypropylcellulose) (HPC) 110 % of control | dose: 400.0 mg/kg/injection, schedule: Q01DX001 (ip), vehicle: Klucel (hydroxypropylcellulose) (HPC) 115 % of control

COc1cc2c3cc1Oc1c(OC)c(OC)cc4c1C(Cc1ccc(O)c(c1)-c1cc(ccc1OC)CC3N(C)CC2)N(C)CC4 (stereo not drawn)
inactive: dose: 0.78 mg/kg/injection, schedule: Q01DX009 (ip), vehicle: Klucel (hydroxypropylcellulose) (HPC) 106 % of control | dose: 1.56 mg/kg/injection, schedule: Q01DX009 (ip), vehicle: Klucel (hydroxypropylcellulose) (HPC) 87 % of control | dose: 3.13 mg/kg/injection, schedule: Q01DX009 (ip), vehicle: Klucel (hydroxypropylcellulose) (HPC) 104 % of control | dose: 6.25 mg/kg/injection, schedule: Q01DX009 (ip), vehicle: Klucel (hydroxypropylcellulose) (HPC) 104 % of control

CC(CCC1(O)OC2CC3C4CC=C5CC(OC6OC(CO)C(OC7OC(C)C(O)C(O)C7O)C(O)C6O)CCC5(C)C4CCC3(C)C2C1(C)C)COC1OC(C)C(O)C(O)C1O (stereo not drawn)
inactive: [1] 100 % of control | [2] 88 % of control

CCN(CC)CCOC(=O)Nc1cc(Cl)cc(Cl)c1
inactive: [3] 100 % of control | [4] 101 % of control | [5] 100 % of control

COc1ccc(C(=S)NC(O)C(=O)c2ccc(Cl)cc2)cc1OC (stereo not drawn)
inactive: dose: 50.0 mg/kg/injection, schedule: Q01DX009 (ip), vehicle: saline with Tween-80 103 % of control | dose: 100.0 mg/kg/injection, schedule: Q01DX009 (ip), vehicle: saline with Tween-80 103 % of control

COc1ccc2c(C)cc(N/N=C/c3ccccn3)nc2c1
inactive: dose: 25.0 mg/kg/injection, schedule: Q01DX005 (ip), vehicle: Klucel (hydroxypropylcellulose) (HPC) 102 % of control and 112 % of control | dose: 50.0 mg/kg/injection, schedule: Q01DX005 (ip), vehicle: Klucel (hydroxypropylcellulose) (HPC) 104 % of control and 118 % of control and 93 % of control | dose: 100.0 mg/kg/injection, schedule: Q01DX005 (ip), vehicle: Klucel (hydroxypropylcellulose) (HPC) 104 % of control and 112 % of control

Nc1nc(N)c2c(n1)NC(=O)CC2c1ccccc1 (stereo not drawn)
inactive: [3] 97 % of control | [4] 90 % of control | [5] 90 % of control

CCC(=O)c1nc(N)[nH]c1CC
inactive: [1] 101 % of control | [2] 93 % of control | dose: 10.0 mg/kg/injection, schedule: Q01DX005 (ip), vehicle: Klucel (hydroxypropylcellulose) (HPC) 102 % of control

CC1(C)OC2OC3C(CN)OC(c4ccccc4)OC3C2O1 (stereo not drawn)
inactive: [6] 105 % of control | [7] 103 % of control | [8] 86 % of control

O=C(Nc1ccc(Cl)cc1)Nc1nnc2nc(C3(c4nc5nnc(NC(=O)Nc6ccc(Cl)cc6)n5[nH]c4=O)Cc4ccccc4C3=O)c(=O)[nH]n12
inactive: [3] 103 % of control | [4] 107 % of control | [5] 98 % of control

O=C(O)c1ccc(=O)[nH]c1
inactive: dose: 100.0 mg/kg/injection, schedule: Q01DX009 (ip), vehicle: saline 101 % of control and 107 % of control | dose: 200.0 mg/kg/injection, schedule: Q01DX009 (ip), vehicle: saline 110 % of control and 118 % of control | dose: 400.0 mg/kg/injection, schedule: Q01DX009 (ip), vehicle: saline 100 % of control and 109 % of control | dose: 600.0 mg/kg/injection, schedule: Q01DX009 (ip), vehicle: saline 104 % of control and 106 % of control

NCC(=O)NCC(=O)NC(Cc1ccc(O)cc1)C(=O)O (stereo not drawn)
inactive: [6] 101 % of control | [7] 96 % of control | [8] 104 % of control

CCSc1ccc2c3c(cccc13)C(=O)N(CCc1ccccn1)C2=O
inactive: dose: 50.0 mg/kg/injection, schedule: Q01DX009 (ip), vehicle: Klucel (hydroxypropylcellulose) (HPC) 98 % of control | [9] 99 % of control | [10] 92 % of control

[O-][n+]1ccccc1C[P+](c1ccccc1)(c1ccccc1)c1ccccc1
inactive: dose: 6.25 mg/kg/injection, schedule: Q01DX009 (ip), vehicle: water 99 % of control | dose: 12.5 mg/kg/injection, schedule: Q01DX009 (ip), vehicle: water 100 % of control and 86 % of control | dose: 25.0 mg/kg/injection, schedule: Q01DX009 (ip), vehicle: water 95 % of control | dose: 50.0 mg/kg/injection, schedule: Q01DX009 (ip), vehicle: water 100 % of control and 98 % of control

O=C(NC(=O)C(F)(F)C(F)(F)F)Nc1cccc(F)c1
inactive: [9] 106 % of control | [10] 100 % of control

O=C(CCSCCC(=O)N/N=C/C(O)C(O)C(O)C(O)CO)N/N=C/C(O)C(O)C(O)C(O)CO (stereo not drawn)
inactive: [6] 99 % of control | dose: 50.0 mg/kg/injection, schedule: Q01DX005 (ip), vehicle: saline 97 % of control | [7] 98 % of control | dose: 100.0 mg/kg/injection, schedule: Q01DX005 (ip), vehicle: saline 98 % of control | [8] 96 % of control | dose: 200.0 mg/kg/injection, schedule: Q01DX005 (ip), vehicle: saline 99 % of control

O=C(OCC(OC(=O)c1ccccc1)C(OC(=O)c1ccccc1)C(OC(=O)c1ccccc1)C(OC(=O)c1ccccc1)c1nn[nH]n1)c1ccccc1 (stereo not drawn)
inactive: dose: 12.5 mg/kg/injection, schedule: Q01DX005 (ip), vehicle: saline with Tween-80 94 % of control | dose: 25.0 mg/kg/injection, schedule: Q01DX005 (ip), vehicle: saline with Tween-80 86 % of control | [6] 90 % of control and 100 % of control | [7] 100 % of control | [8] 96 % of control
